Source: US11213506B2, “Combination therapy for the treatment or prevention of tumours” (QBIOTICS PTY LTD, priority 2017, dated 2022)

Tests used:
[1] = system: A431 cells; experiment: IncuCyte cytotoxicity assay (propidium iodide); type: cell-based, human; details: 500 μM; for propidium iodide staining (loss of plasma membrane integrity): after 120 minutes, majority of cells; for cell morphology (cytoplasmic swelling, blistering): differing extents and kinetics of onset
Description: (§1) A431 (human epidermoid carcinoma), MM649 (human melanoma), B16-OVA (B16-F10 mouse melanoma cell line stably transfected with chicken ovalbumin), MM415 (human melanoma) and FaDu (human hypopharyngeal carcinoma) cells were cultured in RPMI-1640, 10% FCS (complete medium) at 37° C., 5% CO2 in a humidified incubator. All cell lines used in this study were confirmed as mycoplasma negative using MycoAlert (Lonza). STR profiling was also performed to confirm the identity of the human cell lines used.
(§2) Four cancer cell lines (A431, MM649 (human melanoma), FaDu (HNSCC) and MM415 (human melanoma) were assessed for their response to epoxytigliane treatment. Cells were plated at a density of 10,000 cells per well (100 μl of complete media) into clear bottom black 96-well plates (Corning, #3603). Following 24 h incubation, the media within each well was aspirated and replaced with 50 μl of fresh media containing 1 μg/ml propidium iodide (PI). Stock solutions (20 mg/ml in ethanol) of four epoxytiglianes (Compounds 1, 2, 3 and 4) were diluted to 2× final assay concentration (1 mM) in identical media and inserted into a U-bottom 96 well plate in preparation for transfer. 50 μl of dilution was added to the required wells and the resultant plates inserted into an Essen Biosciences IncuCyte in preparation for imaging. Images were acquired at various time points (30 min, 1 h and at hourly intervals) for a total of 24 h.

[2] = system: MM649 cells; experiment: IncuCyte cytotoxicity assay (propidium iodide); type: cell-based, human; details: 500 μM; for propidium iodide staining (loss of plasma membrane integrity): after 120 minutes, majority of cells; for cell morphology (cytoplasmic swelling, blistering): differing extents and kinetics of onset
Description: as §1, §2

[3] = system: FaDu cells; experiment: IncuCyte cytotoxicity assay (propidium iodide); type: cell-based, human; details: 500 μM; for propidium iodide staining (loss of plasma membrane integrity): after 120 minutes, majority of cells; for cell morphology (cytoplasmic swelling, blistering): differing extents and kinetics of onset
Description: as §1, §2

[4] = system: MM415 cells; experiment: IncuCyte cytotoxicity assay (propidium iodide); type: cell-based, human; details: 500 μM; for propidium iodide staining (loss of plasma membrane integrity): after 120 minutes, majority of cells; for cell morphology (cytoplasmic swelling, blistering): differing extents and kinetics of onset
Description: as §1, §2

[5] = system: B16-OVA cells; experiment: ATP release assay; type: cell-based, mouse; details: both concentrations (500 and 300 μM), within 60 minutes
Description: as §1, with “melanoma) and” for “melanoma),”, “ovalbumin)” for “ovalbumin), MM415 (human melanoma) and FaDu (human hypopharyngeal carcinoma) cells”, “incubator. BMDCs were cultured in R10 media (RPMI, 10% FCS, 2 mM glutamine, 50 μM beta-mercaptoethanol, Pen/Strep).” for “incubator.”
(§3) Cell lines were plated at a density of 10,000 cells per well into clear 96-well plates (Corning, #3595; 100 μl of complete media) and the resultant plates incubated overnight as previously detailed. The following day, media was aspirated from each well and 50 μl of fresh medium was inserted. Stock solutions of Compounds 1, 2, 3 and 4 were diluted to 2× final assay concentration (1 mM and 600 μM) and 50 μl of these dilutions added to the required wells. Ethanol only control solutions were also compiled and administered. At the indicated timepoints, 80 μl of media was removed, centrifuged at 1,200 rpm for 4 mins to pellet cell debris and 50 μl assayed for ATP using a bioluminescence based ATP assay kit (FLAA, Sigma-Aldrich). Relative luminescence units were recorded for each sample using a Hybrid Synergy H4 plate reader (BioTek).

[6] = system: CD11c+ BMDCs with B16-OVA cells; experiment: BMDC uptake of epoxytigliane treated B16-OVA cells; type: cell-based, C57Bl/6 mice; details: B16-OVA treated at 500 or 300 μM for 30 and 60 mins; 4 h co-culture
Description: The tibias and […] from four 7-8 week old C57Bl/6 mice were first surgically removed under sterile conditions. The marrow was flushed from the bone cavity with 10 ml of ice cold R10 media (using a 27G needle/syringe into a 50 ml polypropylene tube). Cells were pelleted at 1,500 rpm for 5 mins and washed ×2 with ice cold R10 media. After resuspension of the pellet into 10 ml of ice cold R10 medium, cells were counted using an improved haemocytometer and plated at a density of 2×10^6 cells per plate (petri dish) in 10 ml of R10 supplemented with 20 ng/ml murine GM-CSF. All plates were incubated at 37° C., 5% CO2 and at day 3 an additional 10 ml R10 with 20 ng/ml GM-CSF was added. Cells were again fed at day 6 and used for downstream assays on day 7.
Prior to co-incubation with BMDCs, B16-OVA cells were trypsinised, centrifuged at 1,200 rpm for 4 mins to pellet cells and washed ×2 with complete medium. Cells were then stained with 2 μM Cell Tracker Green in complete medium for 45 mins, after which they were pelleted and washed ×2 as above. Labelled B16-OVA cells were subsequently treated with Compounds 1, 2, 3 and 4 at two concentrations (500 or 300 μM) in media at a density of 1×10^6 cells/ml for 30 and 60 mins, after which cells were pelleted via centrifugation, supernatant removed via aspiration and the cell pellet washed ×1 with complete media. After the wash, the treated cells were resuspended in R10 media, inserted into the wells of a 6-well plate (Corning, #3471. Ultra low attachment surface) and BMDCs added. Co-cultures were incubated for 4 h after which cell suspensions were transferred to a microfuge tube and centrifuged at 1,500 rpm for 5 mins. Pellets were resuspended in 100 μl FACs buffer containing anti-CD11c-APC and incubated for 10 mins at 4° C. Cells were again pelleted, washed ×1 with FACs buffer and then fixed using PBS, 1% formaldehyde for 10 mins. After centrifugation and removal of the supernatant, cells were resuspended in 500 μl FACs buffer in preparation for flow cytometry.
Samples were first gated by FSC-H v FSC-A, then SSC-H v SS-A to identify single cells. The proportion of CD11c^+ cells (Ex: 640 nm, Em: 670/14) with CMFDAmid (Ex: 488 nm, Em: 530/30) were then determined for treated and untreated cells as a percentage of all CD11c^+ cells.

[7] = system: A431 cells; experiment: ATP release assay; type: cell-based, human; details: both concentrations (500 and 300 μM), within 60 minutes
Description: as §1, with “melanoma) and” for “melanoma),”, “ovalbumin)” for “ovalbumin), MM415 (human melanoma) and FaDu (human hypopharyngeal carcinoma) cells”, “incubator. BMDCs were cultured in R10 media (RPMI, 10% FCS, 2 mM glutamine, 50 μM beta-mercaptoethanol, Pen/Strep).” for “incubator.”
as §3

[8] = system: MM649 cells; experiment: ATP release assay; type: cell-based, human; details: both concentrations (500 and 300 μM), within 60 minutes
Description: as §1, with “melanoma) and” for “melanoma),”, “ovalbumin)” for “ovalbumin), MM415 (human melanoma) and FaDu (human hypopharyngeal carcinoma) cells”, “incubator. BMDCs were cultured in R10 media (RPMI, 10% FCS, 2 mM glutamine, 50 μM beta-mercaptoethanol, Pen/Strep).” for “incubator.”
as §3

| SMILES | propidium iodide staining (loss of plasma membrane integrity) [1] | cell morphology (cytoplasmic swelling, blistering) [1] | propidium iodide staining (loss of plasma membrane integrity) [2] | cell morphology (cytoplasmic swelling, blistering) [2] | propidium iodide staining (loss of plasma membrane integrity) [3] | cell morphology (cytoplasmic swelling, blistering) [3] | propidium iodide staining (loss of plasma membrane integrity) [4] | cell morphology (cytoplasmic swelling, blistering) [4] | ATP release [5] | uptake of dying cancer cell fragments by CD11c+ dendritic cells/macrophages (BMDCs) [6] | ATP release [7] | ATP release [8] |
| --- | --- | --- | --- | --- | --- | --- | --- | --- | --- | --- | --- | --- |
| CCC(C)C(=O)OC1C(C)C2(O)C(C3OC3(CO)C(O)C3(O)C(=O)C(C)=CC32)C2C(C)(C)C12OC(=O)C(C)CC (stereo not drawn) [Compound 2, 12,13-di-(2-methylbutanoyl)-6,7-epoxy-4,5,9,12,13,20-hexahydroxy-1-tiglien-3-one] | strong red staining | significant cytoplasmic swelling and ‘blistering’ | strong red staining | significant cytoplasmic swelling and ‘blistering’ | strong red staining | significant cytoplasmic swelling and ‘blistering’ | strong red staining | significant cytoplasmic swelling and ‘blistering’ | significant release of ATP | promotes uptake | significant release of ATP | significant release of ATP |
| CCCCCC(=O)OC1C(C)C2(O)C(C3OC3(CO)C(O)C3(O)C(=O)C(C)=CC32)C2C(C)(C)C12OC(=O)C(C)CC (stereo not drawn) [Compound 3, 12-hexanoyl-13-(2-methylbutanoyl)-6,7-epoxy-4,5,9,12,13,20-hexahydroxy-1-tiglien-3-one] | strong red staining | significant cytoplasmic swelling and ‘blistering’ | strong red staining | significant cytoplasmic swelling and ‘blistering’ | strong red staining | significant cytoplasmic swelling and ‘blistering’ | strong red staining | significant cytoplasmic swelling and ‘blistering’ | significant release of ATP | promotes uptake | significant release of ATP | significant release of ATP |
| CCCCCC(=O)OC1C(C)C2(O)C(C3OC3(CO)C(O)C3(O)C(=O)C(C)=CC32)C2C(C)(C)C12OC(=O)CCCCC (stereo not drawn) [Compound 4, 12,13-dihexanoyl-6,7-epoxy-4,5,9,12,13,20-hexahydroxy-1-tiglien-3-one] | strong red staining | significant cytoplasmic swelling and ‘blistering’ | strong red staining | significant cytoplasmic swelling and ‘blistering’ | strong red staining | significant cytoplasmic swelling and ‘blistering’ | strong red staining | significant cytoplasmic swelling and ‘blistering’ | significant release of ATP | promotes uptake | significant release of ATP | significant release of ATP |
